Test [1] deals with A2780 human ovarian cancer cell line. Briefly: Cytotoxicity of ipomoeassins A-F. In kind it is cell-based. As to conditions: from Table 1 values.
The test system is the same in test [2]. As to conditions: read-out: IC50 (nM) A2780; A2780 human ovarian cancer cells; cited from earlier work.
Test [3] has as its system human breast epithelial cell line MCF-10A. Briefly: Alamar Blue cytotoxicity assay. Particulars: MCF-10A vs MDA-MB-231 / MCF7. In kind it is cell-based.
Test [4] has as its system breast cancer cell line MDA-MB-231. Description: Alamar Blue cytotoxicity assay. In kind it is cell-based. Particulars: for fold less potent than ipomoeassin F: MDA-MB-231.
Test [5] has as its system MCF7 breast cancer cell line. Briefly: Colorimetric MTT cytotoxicity assay. In kind it is cell-based.

For `C/C=C(\C)C(=O)O[C@@H]1[C@@H](O)[C@@H]2O[C@H]3[C@H](O[C@@H](CCC)CCCCC[C@H](OC(C)=O)C(=O)CCC(=O)OC[C@@H](O2)[C@H]1OC(=O)/C=C/c1ccccc1)O[C@H](C)[C@H](OC(C)=O)[C@@H]3O` [Ipomoeassin D], the “fold potency enhancement, R1 H to OAc (A vs. D)” value in test [1] (A2780) is reported as “up to 14 fold”. As for `C/C=C(\C)C(=O)O[C@@H]1[C@@H](O)[C@@H]2O[C@H]3[C@H](O[C@@H](CCC)CCCCC[C@H](OC(C)=O)C(=O)CCC(=O)OC[C@@H](O2)[C@H]1OC(=O)/C=C/c1ccccc1)O[C@H](C)[C@H](O)[C@@H]3O` [Ipomoeassin E], the “fold activity loss, R1 H to OAc (B vs. E)” value in test [1] (A2780) was found to be 8 fold. The 50% inhibitory concentration (IC50) in test [2] was 3300 nM. On to `C/C=C(\C)C(=O)O[C@@H]1[C@@H](O)[C@@H]2O[C@H]3[C@H](O[C@@H](CCCCC)CCCCCNC(=O)CCC(=O)OC[C@@H](O2)[C@H]1OC(=O)/C=C/c1ccccc1)O[C@H](C)[C@H](OC(C)=O)[C@@H]3O` [Analogue 2], for which the “selectivity between tumor and non-tumor cells” value in test [3] is listed as “slight selectivity towards MDA-MB-231 cells”. Turning to `C/C=C(\C)C(=O)O[C@@H]1[C@@H](O)[C@@H]2O[C@H]3[C@H](O[C@@H](CCCCC)CCCCCN(C)C(=O)CCC(=O)OC[C@@H](O2)[C@H]1OC(=O)/C=C/c1ccccc1)O[C@H](C)[C@H](OC(C)=O)[C@@H]3O` [Analogue 21], the “fold less potent than ipomoeassin F” value in test [4] and in test [5] was not above 2 fold in each case.

Regarding `C/C=C(\C)C(=O)O[C@@H]1[C@@H](O)[C@@H]2O[C@H]3[C@H](O[C@@H](CCCCC)C/C=C\CCOC(=O)CCC(=O)OC[C@@H](O2)[C@H]1OC(=O)/C=C/c1ccccc1)O[C@H](C)[C@H](OC(C)=O)[C@@H]3O` [Analogue 24], the “fold more potent than the E-counterpart 23” value in test [4] (breast cancer cell lines of Table 2 (MDA-MB-231, MCF7)) is recorded as ~ 3 fold.

In the case of `C/C=C(\C)C(=O)O[C@@H]1[C@@H](O)[C@@H]2O[C@H]3[C@H](O[C@@H](CCC)CCCCC[C@H](O)C(=O)CCC(=O)OC[C@@H](O2)[C@H]1OC(=O)/C=C/c1ccccc1)O[C@H](C)[C@H](OC(C)=O)[C@@H]3O` [Ipomoeassin C], in test [1], the “fold activity difference between ipomoeassin C and ipomoeassin A/D” value was “up to 80 fold”. For the molecule `C/C=C(\C)C(=O)O[C@@H]1[C@@H](O)[C@@H]2O[C@H]3[C@H](O[C@@H](CCCCC)CCCCCOC(=O)CCC(=O)OC[C@@H](O2)[C@H]1OC(=O)/C=C/c1ccccc1)O[C@H](C)[C@H](OC(C)=O)[C@@H]3O` [Analogue 1], the results for the “fold less potent than ipomoeassin F” value in test [4] and in test [5] were “about 4 fold” and approximately 2 fold, respectively. For `C/C=C(\C)C(=O)O[C@@H]1[C@@H](O)[C@@H]2O[C@H]3[C@H](O[C@@H](CCCCC)CCCCOC(=O)CCC(=O)OC[C@@H](O2)[C@H]1OC(=O)/C=C/c1ccccc1)O[C@H](C)[C@H](OC(C)=O)[C@@H]3O` [Analogue 25], the “fold activity loss compared to 1” value in test [4] (MDA-MB-231 (printed MBA-BD-231)) and in test [5] was 9 fold throughout.

The values above are taken from paper PMC5800971 (European journal of medicinal chemistry, 2017).
